{"source": "patent US20260218109A1", "about": "“CULTURING DEVICE AND METHOD” (METHANE […] LIMITED, priority 2023, published 2026)", "test_system": "culture from a ruminant animal foregut", "test": "administration of feed material and methanogenesis inhibitor to culturing device liquor, recording CH4 and dH2 (FIG. 11)", "type": "cell-based, sheep", "conditions": "final CHBr3 concentration 6 μM in 1.5 L liquor", "description": "FIG. 11 comprises a graph 1101 of the measured temperature on the upper y-axis 1102 shown in degrees Celsius (° C.), the measured CH4 on the middle y-axis 1103 in percentage (%), and the measured dH2 on the lower y-axis 1104 in milli Volts (mV) versus time on the x-axis 1105 measured in hours.\nThe plot 1106 of CH4 is the output of the SGX methane sensor as described in FIG. 8 800 and the accompanying text.\nThe plot 1006 of dH2 is the voltage generated by a hydrogen fuel cell as described in FIG. 7 700 and the accompanying text.\nThe culturing device vessel was inoculated with a culture sourced from a freshly slaughtered grass-fed ewe hogget sheep of mixed breed. After resection of the reticulorumen organ, 2.5 L the rumen content was determined to have a pH Of 6.0 and then transferred to a 5 L jug and mixed with 2.5 L of rainwater. A 0.7 L aliquot of this mixture was used to inoculate the vessel of a culturing device containing 0.8 L of rainwater pre-heated to the culturing device setpoint temperature of about 39° C.\nAfter inoculation, the culturing device was prescribed the movement algorithm described in FIG. 10 1000 above.\nAs described herein, the vessel of the present examples has an internal volume of about 2.0 L and is typically operated with 1.5 L of liquor and 0.5 L of headspace. […]", "data": [{"smiles": "BrC(Br)Br", "note": "[CHBr3]", "values": [{"measurement": "measured CH4 (plot 1106), effect of added CHBr3", "setting": "given with daily feed on, 39° C.", "result": "decreasing CH4"}, {"measurement": "measured dH2 (plot 1107, hydrogen fuel cell voltage)", "setting": "then ceased, dH2 anticipated to increase when methanogenesis is reduced", "result": "mirrored in the plot 1107 of the dH2"}]}]}
